Experimental data published in ChEMBL document CHEMBL5338706, “Discovery of a potent and selective proteolysis targeting chimera (PROTAC) degrader of NSD3 histone methyltransferase” (Eur J Med Chem, 2022).
Calls of active or inactive are those of the source. The calls are words filed in the database; no cut-off is given here.

Legend:
[1] = molecular target: T1, Histone-lysine N-methyltransferase NSD3 (Homo sapiens) (UniProt Q9BZ95); test: (§1) Induction of NSD3 degradation in human NCI-H1703 cells incubated for 72 hrs by Western blot analysis; type: cell-based; details: dose 0.001-5 µM
T1 sequence (whole entry): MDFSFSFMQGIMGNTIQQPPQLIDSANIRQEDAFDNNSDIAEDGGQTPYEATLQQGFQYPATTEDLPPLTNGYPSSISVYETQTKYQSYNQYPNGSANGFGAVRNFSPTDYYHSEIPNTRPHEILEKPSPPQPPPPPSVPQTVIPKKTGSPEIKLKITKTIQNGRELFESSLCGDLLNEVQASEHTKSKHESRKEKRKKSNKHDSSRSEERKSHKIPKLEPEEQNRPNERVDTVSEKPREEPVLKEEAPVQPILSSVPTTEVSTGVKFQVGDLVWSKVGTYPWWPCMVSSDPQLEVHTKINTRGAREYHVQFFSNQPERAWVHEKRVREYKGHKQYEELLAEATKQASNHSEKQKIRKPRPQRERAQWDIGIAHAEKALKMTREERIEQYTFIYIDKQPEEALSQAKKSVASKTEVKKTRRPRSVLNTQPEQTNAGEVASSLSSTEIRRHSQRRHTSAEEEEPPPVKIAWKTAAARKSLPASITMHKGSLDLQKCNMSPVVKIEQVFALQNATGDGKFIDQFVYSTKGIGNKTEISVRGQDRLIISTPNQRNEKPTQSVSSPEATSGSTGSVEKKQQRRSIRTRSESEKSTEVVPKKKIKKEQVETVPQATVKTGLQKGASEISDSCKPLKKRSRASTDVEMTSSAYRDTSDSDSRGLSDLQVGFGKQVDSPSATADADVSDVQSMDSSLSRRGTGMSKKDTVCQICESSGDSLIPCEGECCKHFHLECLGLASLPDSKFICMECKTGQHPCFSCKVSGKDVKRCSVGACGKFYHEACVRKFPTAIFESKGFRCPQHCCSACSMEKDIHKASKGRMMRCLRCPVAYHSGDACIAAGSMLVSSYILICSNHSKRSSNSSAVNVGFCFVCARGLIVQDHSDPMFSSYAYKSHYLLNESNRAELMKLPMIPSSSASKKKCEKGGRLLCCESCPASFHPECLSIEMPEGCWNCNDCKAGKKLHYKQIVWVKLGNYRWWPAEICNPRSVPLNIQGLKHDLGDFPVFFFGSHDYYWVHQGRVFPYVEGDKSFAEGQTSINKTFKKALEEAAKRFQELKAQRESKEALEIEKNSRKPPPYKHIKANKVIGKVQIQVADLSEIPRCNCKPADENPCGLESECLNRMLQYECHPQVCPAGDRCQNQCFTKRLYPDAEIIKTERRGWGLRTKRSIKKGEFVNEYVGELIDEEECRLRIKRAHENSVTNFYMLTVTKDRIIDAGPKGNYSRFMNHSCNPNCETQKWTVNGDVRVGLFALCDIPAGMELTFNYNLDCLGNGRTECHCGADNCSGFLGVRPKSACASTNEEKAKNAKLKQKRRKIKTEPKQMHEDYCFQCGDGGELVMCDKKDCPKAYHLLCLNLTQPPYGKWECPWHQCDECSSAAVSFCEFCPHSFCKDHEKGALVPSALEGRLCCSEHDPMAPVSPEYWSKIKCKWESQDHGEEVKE

[2] = molecular target: T2, Histone-lysine N-methyltransferase NSD3 (Homo sapiens, UniProt Q9BZ95); test: as §1; type: cell-based
T2 sequence (Q9BZ95 whole entry): T1 sequence (whole entry)

[3] = molecular target: T2, Histone-lysine N-methyltransferase NSD3; test: Induction of NSD3 degradation in human A549 cells measured after 72 hrs by Western blot analysis; type: cell-based
[4] = molecular target: T1, Histone-lysine N-methyltransferase NSD3 (Homo sapiens); test: Induction of NSD3 degradation in human NCI-H1703 cells at […] incubated for 48 hrs in presence of MG132 by Western blot analysis; type: cell-based; details: dose 7.5 µM
[5] = molecular target: Histone-lysine N-methyltransferase, H3 lysine-36 specific (Homo sapiens) (UniProt Q96L73); test: Induction of NSD1 degradation in human NCI-H1703 cells at 3 to […] incubated for 72 hrs by Western blot analysis; type: cell-based; details: dose 3-7.5 µM
Chain of Histone-lysine N-methyltransferase, H3 lysine-36 specific (Homo sapiens) (Q96L73 whole entry): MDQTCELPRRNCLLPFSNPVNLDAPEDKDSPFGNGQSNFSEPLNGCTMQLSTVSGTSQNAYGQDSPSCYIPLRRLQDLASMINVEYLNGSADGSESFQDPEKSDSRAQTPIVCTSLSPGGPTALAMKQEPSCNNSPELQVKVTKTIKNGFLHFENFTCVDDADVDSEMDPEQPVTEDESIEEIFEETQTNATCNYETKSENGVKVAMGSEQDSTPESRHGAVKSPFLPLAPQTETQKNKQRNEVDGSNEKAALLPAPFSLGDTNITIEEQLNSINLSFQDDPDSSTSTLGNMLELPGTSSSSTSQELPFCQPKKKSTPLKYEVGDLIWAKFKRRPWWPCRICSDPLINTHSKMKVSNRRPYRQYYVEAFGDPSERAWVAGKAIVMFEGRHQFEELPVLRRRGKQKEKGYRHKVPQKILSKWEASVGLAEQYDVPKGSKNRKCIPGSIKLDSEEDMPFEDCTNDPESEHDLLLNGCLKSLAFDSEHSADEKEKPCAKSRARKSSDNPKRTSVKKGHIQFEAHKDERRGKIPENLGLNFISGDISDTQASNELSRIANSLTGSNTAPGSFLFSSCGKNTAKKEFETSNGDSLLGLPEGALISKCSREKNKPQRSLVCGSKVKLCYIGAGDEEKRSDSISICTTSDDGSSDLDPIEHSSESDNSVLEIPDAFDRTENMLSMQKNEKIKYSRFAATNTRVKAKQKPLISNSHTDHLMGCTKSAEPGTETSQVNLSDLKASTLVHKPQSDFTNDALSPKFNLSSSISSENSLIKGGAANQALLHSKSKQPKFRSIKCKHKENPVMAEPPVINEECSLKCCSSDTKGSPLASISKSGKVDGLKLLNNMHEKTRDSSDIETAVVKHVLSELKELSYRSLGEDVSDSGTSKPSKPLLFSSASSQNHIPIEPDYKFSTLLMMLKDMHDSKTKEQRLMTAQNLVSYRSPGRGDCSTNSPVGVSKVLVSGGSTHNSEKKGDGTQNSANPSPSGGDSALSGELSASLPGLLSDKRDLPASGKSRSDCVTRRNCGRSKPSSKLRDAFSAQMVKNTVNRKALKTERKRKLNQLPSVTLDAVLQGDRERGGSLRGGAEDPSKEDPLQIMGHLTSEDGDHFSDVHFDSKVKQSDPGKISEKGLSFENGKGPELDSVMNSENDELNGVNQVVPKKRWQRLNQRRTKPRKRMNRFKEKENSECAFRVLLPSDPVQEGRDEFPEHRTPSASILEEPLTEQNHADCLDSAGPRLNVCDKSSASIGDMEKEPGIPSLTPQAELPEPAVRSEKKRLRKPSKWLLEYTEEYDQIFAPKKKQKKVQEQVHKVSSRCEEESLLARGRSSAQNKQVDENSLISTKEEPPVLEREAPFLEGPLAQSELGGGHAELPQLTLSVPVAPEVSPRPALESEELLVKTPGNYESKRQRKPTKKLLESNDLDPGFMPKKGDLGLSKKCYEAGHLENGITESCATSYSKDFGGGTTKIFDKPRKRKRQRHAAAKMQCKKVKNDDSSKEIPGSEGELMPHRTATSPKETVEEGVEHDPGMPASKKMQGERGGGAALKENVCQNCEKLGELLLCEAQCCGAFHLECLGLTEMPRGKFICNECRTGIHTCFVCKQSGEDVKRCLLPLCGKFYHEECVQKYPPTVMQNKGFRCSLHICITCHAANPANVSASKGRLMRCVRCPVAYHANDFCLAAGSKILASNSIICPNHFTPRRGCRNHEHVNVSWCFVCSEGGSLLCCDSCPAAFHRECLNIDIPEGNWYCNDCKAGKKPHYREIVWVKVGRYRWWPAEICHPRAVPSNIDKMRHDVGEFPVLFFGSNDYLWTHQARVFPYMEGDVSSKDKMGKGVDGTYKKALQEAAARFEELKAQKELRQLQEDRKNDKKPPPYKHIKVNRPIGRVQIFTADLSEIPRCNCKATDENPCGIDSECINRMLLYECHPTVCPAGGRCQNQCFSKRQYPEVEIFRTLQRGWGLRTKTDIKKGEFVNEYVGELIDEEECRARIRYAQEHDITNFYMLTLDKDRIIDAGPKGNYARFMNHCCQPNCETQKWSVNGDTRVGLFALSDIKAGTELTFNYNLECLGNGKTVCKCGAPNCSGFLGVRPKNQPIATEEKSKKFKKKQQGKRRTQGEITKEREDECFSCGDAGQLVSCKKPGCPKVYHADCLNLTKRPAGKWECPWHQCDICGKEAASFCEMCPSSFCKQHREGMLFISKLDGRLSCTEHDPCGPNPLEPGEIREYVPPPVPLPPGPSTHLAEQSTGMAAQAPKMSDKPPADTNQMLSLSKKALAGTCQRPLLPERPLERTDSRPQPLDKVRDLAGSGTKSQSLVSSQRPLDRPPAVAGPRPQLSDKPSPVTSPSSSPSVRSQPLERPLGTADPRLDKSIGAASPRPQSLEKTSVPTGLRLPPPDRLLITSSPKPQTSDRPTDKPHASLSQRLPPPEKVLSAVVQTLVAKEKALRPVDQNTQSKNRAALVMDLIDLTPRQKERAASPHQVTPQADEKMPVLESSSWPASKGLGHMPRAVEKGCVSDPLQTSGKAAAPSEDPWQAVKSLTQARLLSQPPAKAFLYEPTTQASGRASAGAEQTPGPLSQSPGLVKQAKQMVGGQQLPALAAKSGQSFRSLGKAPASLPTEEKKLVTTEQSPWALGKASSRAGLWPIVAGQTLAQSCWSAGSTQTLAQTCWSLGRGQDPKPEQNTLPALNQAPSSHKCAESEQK

[6] = molecular target: T1, Histone-lysine N-methyltransferase NSD3 (Homo sapiens); test: Induction of NSD3 degradation in human NCI-H1703 cells assessed as reduction in H3K36me3 methylation incubated for 72 hrs by Western blot analysis; type: cell-based; details: dose 3-7.5 µM
[7] = molecular target: T1, Histone-lysine N-methyltransferase NSD3 (Homo sapiens); test: Induction of NSD3 degradation in human A549 cells assessed as reduction in H3K36me3 methylation incubated for 72 hrs by Western blot analysis; type: cell-based; details: dose 5-10 µM
NCI-H520 [8] = test: Downregulation of CyclinD1 level in human NCI-H520 cells at 3 to […] by Western blot analysis; type: functional, cell-based; details: dose 3-7.5 µM
NCI-H1703 [9] = test: Induction of apoptosis in human NCI-H1703 cells assessed as decrease in MCL-1 protein expression at 5 to 10 uM by Western blot analysis; type: functional, cell-based; details: dose 5-10 µM
NCI-H1703 [10] = test: Induction of apoptosis in human NCI-H1703 cells assessed as viable cells at 5 uM measured after 72 hrs by PI/Annexin-V staining based flow cytometry analysis (reference value: 92.7% ); type: functional; details: read-out: Activity
NCI-H1703 [11] = test: Induction of apoptosis in human NCI-H1703 cells assessed as early apoptotic cells at 10 uM measured after 72 hrs by PI/Annexin-V staining based flow cytometry analysis (reference value: 1.47% ); type: functional
NCI-H1703 [12] = test: Induction of apoptosis in human NCI-H1703 cells assessed as late apoptotic cells at 3 uM measured after 72 hrs by PI/Annexin-V staining based flow cytometry analysis (reference value: 3.00% ); type: functional
NCI-H1703 [13] = test: Induction of apoptosis in human NCI-H1703 cells assessed as late apoptotic cells at 5 uM measured after 72 hrs by PI/Annexin-V staining based flow cytometry analysis (reference value: 3.00% ); type: functional
NCI-H1703 [14] = test: Induction of apoptosis in human NCI-H1703 cells assessed as necrotic cells at […] measured after 72 hrs by PI/Annexin-V staining based flow cytometry analysis (reference value: 2.80% ); type: functional; details: dose 7.5 µM
NCI-H1703 [15] = test: Antiproliferative activity against human NCI-H1703 cells incubated for 6 days by CCK-8 method; type: functional, cell-based; details: NCI-H1703, 144 h
[16] = Downregulation of Cyclin D1 level in human NCI-H1703 cells at 5 uM by measuring fold change by Western blot analysis relative to control; type: functional
[17] = Downregulation of c-Myc level in human NCI-H1703 cells at 3 uM by measuring fold change by Western blot analysis relative to control; type: functional
[18] = Downregulation of Cyclin D1 level in human NCI-H520 cells at 5 uM by measuring fold change by Western blot analysis relative to control; type: functional
NCI-H1703 [19] = test: Induction of apoptosis in human NCI-H1703 cells assessed as decrease in NSD3 protein expression at […] by measuring fold change by Western blot analysis relative to control; type: functional; details: dose 7.5 µM
NCI-H520 [20] = test: Induction of apoptosis in human NCI-H520 cells assessed as decrease in MCL-1 protein expression at 5 uM by measuring fold change by Western blot analysis relative to control; type: functional
NCI-H520 [21] = test: Induction of apoptosis in human NCI-H520 cells assessed as decrease in MCL-1 protein expression at […] by measuring fold change by Western blot analysis relative to control; type: functional; details: dose 7.5 µM

Activity [1]: Dose-Dependent Effect
EC50 [2]: 1430 nM
EC50 [3]: 940 nM
Activity [4]: inactive
Activity [5]: inactive
Activity [6]: Dose-Dependent Effect
Activity [7]: Dose-Dependent Effect
IC50 (NCI-H1703 [15]): 2740 nM
Structure (SMILES): Cc1cc(CNCCCCCCCCCCC(=O)N[C@H](C(=O)N2C[C@H](O)C[C@H]2C(=O)N[C@@H](C)c2ccc(-c3scnc3C)cc2)C(C)(C)C)cc(C)c1-c1ncn(C)c1-c1ccnc2cc(F)ccc12
Activity (NCI-H520 [8]): Active
Activity (NCI-H1703 [9]): Active
viability at 5 µM (NCI-H1703 [10]): 81.2%
Activity (NCI-H1703 [11]): 12.8%
Activity (NCI-H1703 [12]): 3%
Activity (NCI-H1703 [13]): 6.08%
Activity (NCI-H1703 [14]): 2.99%
fold change (FC) [16]: 0.69
fold change (FC) [17]: 0.86
fold change (FC) [18]: 0.8
fold change (FC) (NCI-H1703 [19]): 0.73
fold change (FC) (NCI-H520 [20]): 0.86
fold change (FC) (NCI-H520 [21]): 0.61
